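Five concentrations, 48 hours, 96-well plates. GI50 is the concentration that inhibits growth by half. At the TGI there is no net growth.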
How the values were obtained:
Assay in all cases: inhibition of tumour cell growth, NCI panel, 48 h
SK-MEL-28 melanoma = test system: SK-MEL-28 melanoma
DU-145 prostate = test system: DU-145 prostate
HS 578T breast = test system: HS 578T breast
NCI-H226 lung = test system: NCI-H226 lung
A498 renal = test system: A498 renal
NCI-H23 lung = test system: NCI-H23 lung
SK-MEL-2 melanoma = test system: SK-MEL-2 melanoma
SNB-75 CNS = test system: SNB-75 CNS
CAKI-1 renal = test system: CAKI-1 renal
NCI-H522 lung = test system: NCI-H522 lung
HL-60(TB) leukemia = test system: HL-60(TB) leukemia
SF-268 CNS = test system: SF-268 CNS
MDA-MB-435 = test system: MDA-MB-435
U251 CNS = test system: U251 CNS
HCC-2998 colon = test system: HCC-2998 colon
HCT-15 colon = test system: HCT-15 colon
RPMI-8226 leukemia = test system: RPMI-8226 leukemia
SNB-19 CNS = test system: SNB-19 CNS
KM12 colon = test system: KM12 colon
OVCAR-5 ovarian = test system: OVCAR-5 ovarian
ACHN renal = test system: ACHN renal
SF-295 CNS = test system: SF-295 CNS
TK-10 renal = test system: TK-10 renal
COLO 205 colon = test system: COLO 205 colon
SW-620 colon = test system: SW-620 colon
HCT-116 colon = test system: HCT-116 colon
MCF7 breast = test system: MCF7 breast
EKVX NSCLC = test system: EKVX NSCLC
SF-539 CNS = test system: SF-539 CNS
SN12C renal = test system: SN12C renal
SK-MEL-5 melanoma = test system: SK-MEL-5 melanoma
UACC-62 melanoma = test system: UACC-62 melanoma
786-0 renal = test system: 786-0 renal
BT-549 breast = test system: BT-549 breast
M14 melanoma = test system: M14 melanoma
OVCAR-8 ovarian = test system: OVCAR-8 ovarian
A549 NSCLC = test system: A549 NSCLC
IGROV1 ovarian = test system: IGROV1 ovarian
PC-3 prostate = test system: PC-3 prostate
SK-OV-3 ovarian = test system: SK-OV-3 ovarian
K-562 leukemia = test system: K-562 leukemia
CCRF-CEM leukemia = test system: CCRF-CEM leukemia
NCI/ADR-RES ovarian = test system: NCI/ADR-RES ovarian
OVCAR-3 ovarian = test system: OVCAR-3 ovarian
RXF 393 renal = test system: RXF 393 renal
NCI-H460 lung = test system: NCI-H460 lung
T-47D breast = test system: T-47D breast
HOP-92 NSCLC = test system: HOP-92 NSCLC
UACC-257 melanoma = test system: UACC-257 melanoma
HOP-62 NSCLC = test system: HOP-62 NSCLC
UO-31 renal = test system: UO-31 renal
HT29 colon = test system: HT29 colon
LOX IMVI melanoma = test system: LOX IMVI melanoma
MDA-MB-231 breast = test system: MDA-MB-231 breast

CC1=C(C(=O)Nc2ccc(F)c(Cl)c2)C(c2cccc(O)c2)NC(=O)N1 (stereo not drawn)
GI50 (SK-MEL-28 melanoma): 58.9 µM
TGI (SK-MEL-28 melanoma): > 100 µM
GI50 (DU-145 prostate): > 100 µM
TGI (DU-145 prostate): > 100 µM
GI50 (HS 578T breast): 26.9 µM
TGI (HS 578T breast): > 100 µM
GI50 (NCI-H226 lung): 85.9 µM
TGI (NCI-H226 lung): > 100 µM
GI50 (A498 renal): 5.04 µM
TGI (A498 renal): > 100 µM
GI50 (NCI-H23 lung): > 100 µM
TGI (NCI-H23 lung): > 100 µM
GI50 (SK-MEL-2 melanoma): 29.5 µM
TGI (SK-MEL-2 melanoma): > 100 µM
GI50 (SNB-75 CNS): 17.8 µM
TGI (SNB-75 CNS): 68.3 µM
GI50 (CAKI-1 renal): > 100 µM
TGI (CAKI-1 renal): > 100 µM
GI50 (NCI-H522 lung): 49 µM
TGI (NCI-H522 lung): > 100 µM
GI50 (HL-60(TB) leukemia): 6.81 µM
TGI (HL-60(TB) leukemia): > 100 µM
GI50 (SF-268 CNS): 98 µM
TGI (SF-268 CNS): > 100 µM
GI50 (MDA-MB-435): 59.7 µM
TGI (MDA-MB-435): > 100 µM
GI50 (U251 CNS): > 100 µM
TGI (U251 CNS): > 100 µM
GI50 (HCC-2998 colon): > 100 µM
TGI (HCC-2998 colon): > 100 µM
GI50 (HCT-15 colon): > 100 µM
TGI (HCT-15 colon): > 100 µM
GI50 (RPMI-8226 leukemia): 55.1 µM
TGI (RPMI-8226 leukemia): > 100 µM
GI50 (SNB-19 CNS): > 100 µM
TGI (SNB-19 CNS): > 100 µM
GI50 (KM12 colon): 61.4 µM
TGI (KM12 colon): > 100 µM
GI50 (OVCAR-5 ovarian): > 100 µM
TGI (OVCAR-5 ovarian): > 100 µM
GI50 (ACHN renal): > 100 µM
TGI (ACHN renal): > 100 µM
GI50 (SF-295 CNS): > 100 µM
TGI (SF-295 CNS): > 100 µM
GI50 (TK-10 renal): > 100 µM
TGI (TK-10 renal): > 100 µM
GI50 (COLO 205 colon): > 100 µM
TGI (COLO 205 colon): > 100 µM
GI50 (SW-620 colon): > 100 µM
TGI (SW-620 colon): > 100 µM
GI50 (HCT-116 colon): 70.7 µM
TGI (HCT-116 colon): > 100 µM
GI50 (MCF7 breast): 58.8 µM
TGI (MCF7 breast): > 100 µM
GI50 (EKVX NSCLC): 78.1 µM
TGI (EKVX NSCLC): > 100 µM
GI50 (SF-539 CNS): > 100 µM
TGI (SF-539 CNS): > 100 µM
GI50 (SN12C renal): > 100 µM
TGI (SN12C renal): > 100 µM
GI50 (SK-MEL-5 melanoma): 45.1 µM
TGI (SK-MEL-5 melanoma): > 100 µM
GI50 (UACC-62 melanoma): 48.7 µM
TGI (UACC-62 melanoma): > 100 µM
GI50 (786-0 renal): > 100 µM
TGI (786-0 renal): > 100 µM
GI50 (BT-549 breast): 67 µM
TGI (BT-549 breast): > 100 µM
GI50 (M14 melanoma): 71.4 µM
TGI (M14 melanoma): > 100 µM
GI50 (OVCAR-8 ovarian): 62.7 µM
TGI (OVCAR-8 ovarian): > 100 µM
GI50 (A549 NSCLC): > 100 µM
TGI (A549 NSCLC): > 100 µM
GI50 (IGROV1 ovarian): 36.1 µM
TGI (IGROV1 ovarian): > 100 µM
GI50 (PC-3 prostate): 63.9 µM
TGI (PC-3 prostate): > 100 µM
GI50 (SK-OV-3 ovarian): > 100 µM
TGI (SK-OV-3 ovarian): > 100 µM
GI50 (K-562 leukemia): 73.5 µM
TGI (K-562 leukemia): > 100 µM
GI50 (CCRF-CEM leukemia): 79.3 µM
TGI (CCRF-CEM leukemia): > 100 µM
GI50 (NCI/ADR-RES ovarian): > 100 µM
TGI (NCI/ADR-RES ovarian): > 100 µM
GI50 (OVCAR-3 ovarian): 71.8 µM
TGI (OVCAR-3 ovarian): > 100 µM
GI50 (RXF 393 renal): > 100 µM
TGI (RXF 393 renal): > 100 µM
GI50 (NCI-H460 lung): > 100 µM
TGI (NCI-H460 lung): > 100 µM
GI50 (T-47D breast): > 100 µM
TGI (T-47D breast): > 100 µM
GI50 (HOP-92 NSCLC): 47.5 µM
TGI (HOP-92 NSCLC): > 100 µM
GI50 (UACC-257 melanoma): 54.3 µM
TGI (UACC-257 melanoma): > 100 µM
GI50 (HOP-62 NSCLC): > 100 µM
TGI (HOP-62 NSCLC): > 100 µM
GI50 (UO-31 renal): 71.4 µM
TGI (UO-31 renal): > 100 µM
GI50 (HT29 colon): 81.6 µM
TGI (HT29 colon): > 100 µM
GI50 (LOX IMVI melanoma): > 100 µM
TGI (LOX IMVI melanoma): > 100 µM
GI50 (MDA-MB-231 breast): 46.2 µM
TGI (MDA-MB-231 breast): > 100 µM
